ChEMBL document CHEMBL1152582, “Discovery of trans-N-[1-(2-fluorophenyl)-3-pyrazolyl]-3-oxospiro[6-azaisobenzofuran-1(3H),1'-cyclohexane]-4'-carboxamide, a potent and orally active neuropeptide Y Y5 receptor antagonist” (Bioorg Med Chem, 2009)
Calls of active or inactive are those of the source. No cut-off for these calls is given here.

Assays:
[1] = Ratio of drug level in brain to plasma in rat at 10 mg/kg, po after 2 hrs; format: ADME, organism-based; design: dose 10 mg/kg, route oral; settings: read-out: BPR
[2] = test system: Rattus norvegicus; assay: Inhibition of [D-Trp34]NPY-induced food intake in Sprague-Dawley rat assessed as minimum effective dose treated po 2 hrs before [D-Trp34]NPY challenge; format: functional; settings: read-out: MED
[3] = biological target: T1, Neuropeptide Y receptor type 5 (Homo sapiens, UniProt Q15761)
T1 sequence (Q15761 whole entry): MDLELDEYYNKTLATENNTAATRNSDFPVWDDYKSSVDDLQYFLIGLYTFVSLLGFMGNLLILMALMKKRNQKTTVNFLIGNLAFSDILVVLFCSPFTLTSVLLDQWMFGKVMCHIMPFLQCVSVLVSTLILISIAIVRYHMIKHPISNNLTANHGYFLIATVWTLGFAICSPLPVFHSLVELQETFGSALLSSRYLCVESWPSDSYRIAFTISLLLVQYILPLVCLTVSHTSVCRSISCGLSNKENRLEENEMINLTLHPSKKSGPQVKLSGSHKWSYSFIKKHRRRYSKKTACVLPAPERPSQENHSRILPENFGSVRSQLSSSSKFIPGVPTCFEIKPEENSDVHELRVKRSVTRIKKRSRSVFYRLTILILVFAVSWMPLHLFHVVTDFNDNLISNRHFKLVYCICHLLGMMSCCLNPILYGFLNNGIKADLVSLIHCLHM
Description: Displacement of [125I]PYY from human recombinant Y5 receptor

[4] = biological target: T2, Neuropeptide Y receptor type 5 (Rattus norvegicus, UniProt Q63634)
T2 sequence (Q63634 whole entry): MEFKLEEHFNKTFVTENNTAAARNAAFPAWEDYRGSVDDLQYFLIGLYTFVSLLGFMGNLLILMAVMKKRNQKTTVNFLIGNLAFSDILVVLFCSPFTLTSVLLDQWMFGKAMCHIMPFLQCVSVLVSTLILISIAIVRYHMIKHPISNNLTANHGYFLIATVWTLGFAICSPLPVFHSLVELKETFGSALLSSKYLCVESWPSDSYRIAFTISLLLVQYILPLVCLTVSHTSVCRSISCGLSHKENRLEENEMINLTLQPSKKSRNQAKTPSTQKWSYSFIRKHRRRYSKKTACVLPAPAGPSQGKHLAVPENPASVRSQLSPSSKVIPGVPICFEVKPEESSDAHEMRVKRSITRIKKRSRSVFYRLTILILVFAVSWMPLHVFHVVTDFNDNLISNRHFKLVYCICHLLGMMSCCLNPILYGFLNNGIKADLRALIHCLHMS
Description: Inhibition of rat Y5 receptor

[5] = test system: Brain; settings: rat, in vivo, po, 10 mg/kg, 2 h
Description: Drug level in rat brain at 10 mg/kg, po after 2 hrs

[6] = in vivo; settings: rat, plasma, po, 10 mg/kg
Description: Plasma concentration in rat at 10 mg/kg, po after 2 hrs

[7] = in vivo; settings: rat, CSF, po, 10 mg/kg
Description: Drug level in rat CSF at 10 mg/kg, po after 2 hrs

[8] = in vivo; settings: rat, CSF/plasma, po, 10 mg/kg
Description: Ratio of drug level in CSF to plasma in rat at 10 mg/kg, po after 2 hrs

[9] = in vitro; settings: rat, hepatocytes
Description: Clearance in rat hepatocytes

[10] = physchem; settings: buffer, pH 7.4
Description: Lipophilicity, log D at pH 7.4

[11] = organism: Mus musculus; assay: Ex vivo Y5 receptor occupancy in mouse brain at plasma level of 100 to 200 ng/ml; format: functional, organism-based
[12] = test system: CYP3A; assay: Inhibition of CYP3A at 10 uM; format: ADME
[13] = test system: Rattus norvegicus; assay: Inhibition of [D-Trp34]NPY-induced food intake in Sprague-Dawley rat at 3 mg/kg, po treated 2 hrs before [D-Trp34]NPY challenge; format: functional
[14] = test system: Rattus norvegicus; assay: Inhibition of [D-Trp34]NPY-induced food intake in Sprague-Dawley rat at 10 mg/kg, po treated 2 hrs before [D-Trp34]NPY challenge; format: functional
[15] = test system: Rattus norvegicus; assay: Inhibition of NPY-induced food intake in Sprague-Dawley rat at 10 mg/kg, po treated 2 hrs before [D-Trp34]NPY challenge; format: functional
[16] = organism: Mus musculus; assay: Ex vivo Y5 receptor occupancy in mouse brain at plasma level of 10 to 20 ng/ml; format: functional, organism-based
[17] = test system: Rattus norvegicus; assay: Inhibition of [D-Trp34]NPY-induced food intake in Sprague-Dawley rat at 0.3 mg/kg, po treated 2 hrs before [D-Trp34]NPY challenge; format: functional
[18] = test system: Rattus norvegicus; assay: Inhibition of [D-Trp34]NPY-induced food intake in Sprague-Dawley rat at 1 mg/kg, po treated 2 hrs before [D-Trp34]NPY challenge; format: functional

IC50 [3]	Drug uptake [5]	concentration at 2 h [6]	concentration at 2 h [7]	CLhep predicted [9]	logD [10]	Structure (SMILES)	other results
2.3 nM	3.13 nmol/g	2940 nM	276 nM	20 mL/min/kg	3.1	O=C1O[C@]2(CC[C@H](C(=O)Nc3ccn(-c4ccccc4)n3)CC2)c2cnccc21	Kp at 2 h [1]: 1.06; minimal effective dose [2]: > 10 mg/kg; IC50 [4]: 2.2 nM; Kp at 2 h [8]: 0.088
				49 mL/min/kg		O=C1O[C@]2(CC[C@H](C(=O)Nc3ncc(-c4ccccc4)cn3)CC2)c2cccnc21	
4.2 nM	2.5 nmol/g	3750 nM	174 nM	18 mL/min/kg	3.1	O=C1O[C@]2(CC[C@H](C(=O)Nc3cnc(-c4ccccc4)cn3)CC2)c2cccnc21	
1.2 nM		190 nM		12 mL/min/kg		O=C1O[C@]2(CC[C@H](C(=O)Nc3csc(-c4ccccc4)n3)CC2)c2cnccc21	
				49 mL/min/kg		O=C1O[C@]2(CC[C@H](C(=O)Nc3ncc(-c4ccccc4)cn3)CC2)c2ncccc21	
2.2 nM				36 mL/min/kg	3.39	O=C1O[C@]2(CC[C@H](C(=O)Nc3cnc(-c4ccccc4)cn3)CC2)c2cnccc21	
1.5 nM				35 mL/min/kg	> 4	O=C1O[C@]2(CC[C@H](C(=O)Nc3cnc(-c4ccccc4)cn3)CC2)c2ccccc21	
1.3 nM	0.5 nmol/g	6680 nM	91 nM	1 mL/min/kg	2.9	O=C1O[C@]2(CC[C@H](C(=O)Nc3cnn(-c4ccccc4)c3)CC2)c2cccnc21	minimal effective dose [2]: 10 mg/kg; IC50 [4]: 4.7 nM; Kp at 2 h [8]: 0.18
5.4 nM				2 mL/min/kg		O=C1O[C@]2(CC[C@H](C(=O)Nc3cc(-c4ccccc4)[nH]n3)CC2)c2cccnc21	
4.4 nM	2.79 nmol/g	6460 nM	416 nM	4 mL/min/kg	2.8	O=C1O[C@]2(CC[C@H](C(=O)Nc3ccn(-c4ccccc4)n3)CC2)c2cccnc21	minimal effective dose [2]: 3 mg/kg; IC50 [4]: 1.7 nM; Kp at 2 h [8]: 0.15
2.7 nM	0.5 nmol/g	6100 nM	59 nM	3 mL/min/kg	3.16	O=C1O[C@]2(CC[C@H](C(=O)Nc3cc(-c4ccccc4)[nH]n3)CC2)c2cnccc21	
						O=C1OC2(CCC(C(=O)Nc3cnc(-c4ccccc4)cn3)CC2)c2ccccc21 (configuration not stated)	Activity [11]: Active; minimal effective dose [2]: > 10 mg/kg; IC50 [4]: 2.5 nM
3.9 nM				39 mL/min/kg		O=C1O[C@]2(CC[C@H](C(=O)Nc3cnc(-c4ccccc4)cn3)CC2)c2ncccc21	
2.2 nM	0.39 nmol/g	1520 nM	45 nM	< 1 mL/min/kg		O=C1O[C@]2(CC[C@H](C(=O)Nc3cnn(-c4ccccc4)c3)CC2)c2cnccc21	Kp at 2 h [8]: 0.115
2.1 nM		290 nM		6 mL/min/kg		O=C1O[C@]2(CC[C@H](C(=O)Nc3cc(-c4ccccc4)on3)CC2)c2cnccc21	
2 nM	1.36 nmol/g	1090 nM	77 nM	10 mL/min/kg	3.4	O=C1O[C@]2(CC[C@H](C(=O)Nc3ccn(-c4cccc(F)c4)n3)CC2)c2cnccc21	
				42 mL/min/kg		O=C1O[C@]2(CC[C@H](C(=O)Nc3ncc(-c4ccccc4)cn3)CC2)c2ccncc21	inhibition at 10 µM [12]: > 50%
2.9 nM				9 mL/min/kg		O=C1O[C@]2(CC[C@H](C(=O)Nc3cc(-c4ccccc4)n[nH]3)CC2)c2ccncc21	inhibition at 10 µM [12]: > 50%
2.4 nM				42 mL/min/kg		O=C1O[C@]2(CC[C@H](C(=O)Nc3cnc(-c4ccccc4)cn3)CC2)c2ccncc21	inhibition at 10 µM [12]: > 50%
2.1 nM		20 nM		14 mL/min/kg		O=C1O[C@]2(CC[C@H](C(=O)Nc3ccc(-c4ccccc4)cn3)CC2)c2cnccc21	
0.92 nM	1.24 nmol/g	890 nM	81 nM	7 mL/min/kg	3.2	O=C1O[C@]2(CC[C@H](C(=O)Nc3ccn(-c4ccc(F)cc4)n3)CC2)c2cnccc21	minimal effective dose [2]: 1 mg/kg; IC50 [4]: 2.1 nM
				39 mL/min/kg		O=C1O[C@]2(CC[C@H](C(=O)Nc3ncc(-c4ccccc4)cn3)CC2)c2cnccc21	
	2.15 nmol/g	1590 nM	152 nM	9 mL/min/kg	3.2	O=C1O[C@]2(CC[C@H](C(=O)Nc3ccn(-c4ccccc4F)n3)CC2)c2cnccc21 [MK-0557]	inhibition in vivo at 3 mg/kg [13]: 61%; inhibition in vivo at 10 mg/kg [14]: 83%; inhibition in vivo at 10 mg/kg [15]: 22%; Activity [16]: Active; minimal effective dose [2]: 3 mg/kg; inhibition in vivo at 0.3 mg/kg [17]: 27%; inhibition in vivo at 1 mg/kg [18]: 43%; IC50 [4]: 2.1 nM
2.4 nM				36 mL/min/kg	3.7	O=C1O[C@]2(CC[C@H](C(=O)Nc3cc(-c4ccccc4)on3)CC2)c2ncccc21	
26 nM						O=C1O[C@]2(CC[C@H](C(=O)Nc3cc(-c4ccccc4)[nH]n3)CC2)c2ncccc21	
0.89 nM	1.33 nmol/g	680 nM	42 nM	21 mL/min/kg	3.4	O=C1O[C@]2(CC[C@H](C(=O)Nc3cnn(-c4ccccc4)n3)CC2)c2cnccc21	Kp at 2 h [8]: 0.032
